The values that follow come from patent US12421254B2, “KRAS modulators and uses thereof” (Quanta Therapeutics, Inc., priority 2023, dated 2025).

Test [1] addresses GST-tagged KRAS-G12D (2-169) (Homo sapiens, UniProt P01116, G12D). Description: Nucleotide exchange assay (NEA), SOS-mediated, HTRF, KRAS G12D. Type of test: biochemical. Particulars: Table 4; IC50 extracted at 30 min; 20 nM SOScat; read-out: NEA G12D IC50. The method in brief:
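Compound preincubated 1 h at RT with 0.25 nM GST-KRAS-G12D (2-169) and anti-GST Tb donor, then 20 nM SOS1cat (564-1049) and 150 nM GTP-DY-647P1 added; pH 7.3 HEPES buffer with MgCl2 and DTT. HTRF monitored at RT; % inhibition versus DMSO and no-SOS blank, 4-parameter IC50 taken at 30 min.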
A general note: Time-resolved FRET reads energy transfer from a long-lived donor to a nearby acceptor.

In test [2] the target is GST-tagged KRAS-G12V (2-169) (Homo sapiens, UniProt P01116, G12V). Description: Nucleotide exchange assay (NEA), SOS-mediated, HTRF, KRAS G12V. Type of test: biochemical. The settings on record: Table 4; IC50 extracted at 90 min; 80 nM SOS. The method in brief:
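GST-KRAS-G12V (2-169), 0.25 nM, pre-incubated 1 h at RT with compound, then SOS1cat (564-1049) 80 nM and GTP-DY-647P1 150 nM added in HEPES pH 7.3 buffer with MgCl2 and DTT. HTRF via anti-GST Tb cryptate read over 90 min; IC50 from 4-parameter fit at 90 min, blanked to no-SOS reactions.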

In test [3] the test system is phospho-ERK in GP2D (KRAS-G12D) cells. Description: pERK In Cell Western (ICW) assay (Method B), GP2D. Type of test: cell-based. Particulars: GP2d, 3 h, Table 4. An outline of the steps:
(§1)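 SW620 (KRAS-G12V), GP2D (KRAS-G12D) and AGS cells, seeded overnight, were exposed to compounds (½-log, 9-point) for 3 h at 37°C, then fixed and stained for phospho-ERK. Infrared imaging; pERK normalized to DRAQ5 DNA stain, expressed as percent of blank control, IC50 by 4-parameter fit.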

Test [4] has as its system phospho-ERK in SW620 (KRAS-G12V) cells. Kind of test: pERK In Cell Western (ICW) assay (Method B), SW620. In kind it is cell-based. The method in brief: as §1
Where [5] appears, read: Homo sapiens, SW-620, 3 h, Table 4.

Chain of GST-tagged KRAS-G12D (2-169) (P01116 2-169 isoform P01116-2 G12D): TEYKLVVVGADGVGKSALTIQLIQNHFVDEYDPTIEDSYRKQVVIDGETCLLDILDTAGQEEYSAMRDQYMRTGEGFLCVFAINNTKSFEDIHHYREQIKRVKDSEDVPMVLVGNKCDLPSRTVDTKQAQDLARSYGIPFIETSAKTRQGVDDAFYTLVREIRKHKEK
Chain of GST-tagged KRAS-G12V (2-169) (P01116 2-169 isoform P01116-2 G12V): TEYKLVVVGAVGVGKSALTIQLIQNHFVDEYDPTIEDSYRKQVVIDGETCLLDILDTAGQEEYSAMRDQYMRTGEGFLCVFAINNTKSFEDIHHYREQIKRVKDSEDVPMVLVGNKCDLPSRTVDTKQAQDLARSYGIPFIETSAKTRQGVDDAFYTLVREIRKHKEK

As a reminder, the IC50 is the point on the concentration scale where inhibition reaches its midpoint. On to `C[C@@]1(O)CCCN(c2nc(OC[C@@]34CCCN3C[C@H](F)C4)nc(N3CC4(C3)c3c(sc(N)c3C#N)CC4(F)F)n2)C1` [Compound 114, 2-amino-5,5-difluoro-1′-[4-[[(2R,8S)-2-fluoro-1,2,3,5,6,7-hexahydropyrrolizin-8-yl]methoxy]-6-[(3R)-3-hydroxy-3-methyl-1-piperidyl]-1,3,5-triazin-2-yl]spiro[6H-cyclopenta[b]thiophene-4,3′-azetidine]-3-carbonitrile], for which the concentration for half-maximal inhibition (IC50) in test [1] is < 10 nM; in test [2] it was < 10 nM; in test [3] it was 10 to 100 nM; in test [4] (setting [5]), 100 to 1000 nM.

Regarding `CC1(NC#N)CCCN(c2nc(OC[C@@]34CCCN3C[C@H](F)C4)nc(N3CC4(CCc5sc(N)c(C#N)c54)C3)n2)C1` (stereo partly drawn) [Compound 52, [1-[4-(2-amino-3-cyano-spiro[5,6-dihydrocyclopenta[b]thiophene-4,3′-azetidine]-1′-yl)-6-[[(2R,8S)-2-fluoro-1,2,3,5,6,7-hexahydropyrrolizin-8-yl]methoxy]-1,3,5-triazin-2-yl]-3-methyl-3-piperidyl]cyanamide], the half-inhibitory concentration (IC50) is 10 to 100 nM in test [1], 10 to 100 nM in test [2], 100 to 1000 nM in test [3] and 1000 to 20000 nM in test [4] (setting [5]).

For `CC1(C#N)CCCN(c2nc(OCC3(CN4CCOCC4)CC3)nc(N3CC4(CCc5sc(N)c(C#N)c54)C3)n2)C1` (centres unmarked) [Compound 57, 2-amino-1′-[4-(3-cyano-3-methyl-1-piperidyl)-6-[[1-(morpholinomethyl)cyclopropyl]methoxy]-1,3,5-triazin-2-yl]spiro[5,6-dihydrocyclopenta[b]thiophene-4,3′-azetidine]-3-carbonitrile], the half-inhibitory concentration (IC50) in test [1] lay within 100 to 1000 nM; in test [2], 10 to 100 nM; in test [3], 1000 to 20000 nM; in test [4] (setting [5]), 1000 to 20000 nM.

In the case of `CC(c1nsnc1N)N(C)c1nc(OC[C@@]23CCCN2C[C@H](F)C3)nc(N2CC3(C2)SCc2sc(N)c(C#N)c23)n1` (single isomer, unassigned) [Compound 184A, 2-amino-1′-[4-[[(1*)-1-(4-amino-1,2,5-thiadiazol-3-yl)ethyl]-methyl-amino]-6-[[(2R,8S)-2-fluoro-1,2,3,5,6,7-hexahydropyrrolizin-8-yl]methoxy]-1,3,5-triazin-2-yl]spiro[6H-thieno[2,3-c]thiophene-4,3′-azetidine]-3-carbonitrile], the half-maximal inhibitory concentration (IC50) in test [1] was < 10 nM; in test [2], < 10 nM; in test [3] it was 10 to 100 nM; in test [4] (setting [5]), < 10 nM.

For the compound `C[C@H](c1cccnc1N)N(CC(F)F)c1nc(OC[C@@H]2CCCN2C)nc(N2CC3(C2)SCc2sc(N)c(C#N)c23)n1` [Compound 196, 2′-amino-1-(4-(((R)-1-(2-aminopyridin-3-yl)ethyl)(2,2-difluoroethyl)amino)-6-(((S)-1-methylpyrrolidin-2-yl)methoxy)-1,3,5-triazin-2-yl)-6′H-spiro[azetidine-3,4′-thieno[3,4-b]thiophene]-3′-carbonitrile], the IC50 in test [1] is < 10 nM; in test [2] it was < 10 nM; in test [3], 10 to 100 nM; in test [4] (setting [5]), < 10 nM.

In the case of `C[C@H](c1cccnc1N)N(CCC#N)c1nc(OCC2(CN3CCOCC3)CC2)nc(N2CC3(C2)SCc2sc(N)c(C#N)c23)n1` [Compound 148, (R)-2′-amino-1-(4-((1-(2-aminopyridin-3-yl)ethyl)(2-cyanoethyl)amino)-6-((1-(morpholinomethyl)cyclopropyl)methoxy)-1,3,5-triazin-2-yl)-6′H-spiro[azetidine-3,4′-thieno[3,4-b]thiophene]-3′-carbonitrile], the half-inhibitory concentration (IC50) was < 10 nM in test [1], < 10 nM in test [2], 10 to 100 nM in test [3] and < 10 nM in test [4] (setting [5]).

On to `CCN(c1nc(OCC2CCC3C(=O)N(C)CCN23)nc(N2CC3(C2)SCc2sc(N)c(C#N)c23)n1)C(C)c1cccnc1N` (mixture of isomers) [Compound 210, 1′-[4-[[(6SR,8aSR)-2-methyl-1-oxo-3,4,6,7,8,8a-hexahydropyrrolo[1,2-a]pyrazin-6-yl]methoxy]-6-[[(IR)-1-(2-amino-3-pyridyl)ethyl]-ethyl-amino]-1,3,5-triazin-2-yl]-2-amino-spiro[6H-thieno[3,4-b]thiophene-4,3′-azetidine]-3-carbonitrile], for which the IC50 in test [1] is < 10 nM; in test [2], < 10 nM; in test [3], 100 to 1000 nM; in test [4] (setting [5]) it was 10 to 100 nM.

Turning to `N#CCC1(O)CCCN(c2nc(OC[C@@]34CCCN3C[C@H](F)C4)nc(N3CC4(CCc5sc(N)c(C#N)c54)C3)n2)C1` (stereo partly drawn) [Compound 79, 2-amino-1′-[4-[3-(cyanomethyl)-3-hydroxy-1-piperidyl]-6-[[(2R,8S)-2-fluoro-1,2,3,5,6,7-hexahydropyrrolizin-8-yl]methoxy]-1,3,5-triazin-2-yl]spiro[5,6-dihydrocyclopenta[b]thiophene-4,3′-azetidine]-3-carbonitrile; 2,2,2-trifluoroacetic acid], the concentration for half-maximal inhibition (IC50) in test [1] was 10 to 100 nM; in test [2], < 10 nM; in test [3], 100 to 1000 nM; in test [4] (setting [5]) it was 1000 to 20000 nM.

`C[C@@]1(O)C[C@@H](O)CN(c2nc(OC[C@@]34CCCN3C[C@H](F)C4)nc(N3CC4(CCc5sc(N)c(C#N)c54)C3)n2)C1` [Compound 47, 2-amino-1′-[4-[(3R,5R)-3,5-dihydroxy-3-methyl-1-piperidyl]-6-[[(2R,8S)-2-fluoro-1,2,3,5,6,7-hexahydropyrrolizin-8-yl]methoxy]-1,3,5-triazin-2-yl]spiro[5,6-dihydrocyclopenta[b]thiophene-4,3′-azetidine]-3-carbonitrile]: the IC50 in test [1] is < 10 nM; in test [2] it was < 10 nM; in test [3], 100 to 1000 nM; in test [4] (setting [5]), ≥ 20000 nM.

As to `C[C@@]1(O)CCCN(c2nc(OC[C@@]34CCCN3C[C@H](F)C4)nc(N3CC4(C3)c3c(sc(N)c3C#N)CC3CC34)n2)C1` (stereo partly drawn) [Compound 51, 2-amino-1′-[4-[[(2R,8S)-2-fluoro-1,2,3,5,6,7-hexahydropyrrolizin-8-yl]methoxy]-6-[(3R)-3-hydroxy-3-methyl-1-piperidyl]-1,3,5-triazin-2-yl]spiro[4a,5,5a,6-tetrahydrocyclopropa[f]benzothiophene-4,3′-azetidine]-3-carbonitrile], the IC50 in test [1] was 10 to 100 nM; in test [2] it was 10 to 100 nM; in test [3], 100 to 1000 nM; in test [4] (setting [5]), 1000 to 20000 nM.

On to `CC(c1cccnc1N)N(C)c1nc(OC[C@@]23CCCN2C[C@H](F)C3)nc(N2CC3(C2)SCc2sc(N)c(C#N)c23)n1` (single isomer, unassigned) [Compound 120A, 2-amino-1′-[4-[[(1*)-1-(2-amino-3-pyridyl)ethyl]-methyl-amino]-6-[[(2R,8S)-2-fluoro-1,2,3,5,6,7-hexahydropyrrolizin-8-yl]methoxy]-1,3,5-triazin-2-yl]spiro[6H-thieno[3,4-b]thiophene-4,3′-azetidine]-3-carbonitrile], for which the IC50 in test [1], in test [2], in test [3] and in test [4] (setting [5]) was < 10 nM each time.

For the compound `CC(c1nsnc1N)N(C)c1nc(OC[C@@]23CCCN2C[C@H](F)C3)nc(N2CC3(CCc4sc(N)c(C#N)c43)C2)n1` (stereo partly drawn) [Compound 170, -amino-1′-[4-[1-(4-amino-1,2,5-thiadiazol-3-yl)ethyl-methyl-amino]-6-[[(2R,8S)-2-fluoro-1,2,3,5,6,7-hexahydropyrrolizin-8-yl]methoxy]-1,3,5-triazin-2-yl]spiro[5,6-dihydrocyclopenta[b]thiophene-4,3′-azetidine]-3-carbonitrile], the IC50 in test [1] is 10 to 100 nM; in test [2], < 10 nM; in test [3] it was 100 to 1000 nM; in test [4] (setting [5]), 10 to 100 nM.

For the compound `N#Cc1c(N)sc2c1C1(CC2)CN(c2nc(OC[C@@]34CCCN3C[C@H](F)C4)nc(N3CCOCC(C#N)C3)n2)C1` (single isomer, unassigned) [Compound 91A, (6*)-4-[4-(2-amino-3-cyano-spiro[5,6-dihydrocyclopenta[b]thiophene-4,3′-azetidine]-1′-yl)-6-[[(2R,8S)-2-fluoro-1,2,3,5,6,7-hexahydropyrrolizin-8-yl]methoxy]-1,3,5-triazin-2-yl]-1,4-oxazepane-6-carbonitrile], the half-inhibitory concentration (IC50) in test [1] is < 10 nM; in test [2], < 10 nM; in test [3], 100 to 1000 nM; in test [4] (Table 4, 3 hours), 100 to 1000 nM.

Regarding `C[C@@]1(O)CCCN(c2nc(OCC3(CN4CCOCC4)CC3)nc(N3CC4(C3)c3c(sc(N)c3C#N)C[C@@H]4F)n2)C1` [Compound 68, (5S)-2-amino-5-fluoro-1′-[4-[(3R)-3-hydroxy-3-methyl-1-piperidyl]-6-[[1-(morpholinomethyl)cyclopropyl]methoxy]-1,3,5-triazin-2-yl]spiro[5,6-dihydrocyclopenta[b]thiophene-4,3′-azetidine]-3-carbonitrile], the IC50 in test [1] is < 10 nM; in test [2] it was 10 to 100 nM; in test [3] it was 100 to 1000 nM; in test [4] (setting [5]), 100 to 1000 nM.
